The source of these data is patent US20250215030A1, “STAT MODULATORS AND USES THEREOF” (Recludix Pharma, Inc., priority 2022, published 2025).

The target of experiment [1] is T1, Recombinant STAT3 protein (STAT3(G127-I722)) (Homo sapiens, UniProt P40763).
T1 construct: STAT3(G127-I722)
Put plainly: STAT3 Fluorescence Polarization (FP) Assay. Conditions: STAT3(G127-I722) 25 nM, probe 5-FAM-GpYLPQTV-NH2 2 nM, 45-minute incubation. In kind it is binding. In a few lines:
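STAT3(G127-I722) at 25 nM and 5-FAM-GpYLPQTV-NH2 probe at 2 nM in HEPES pH 7.4 buffer with NaCl, EDTA, Tween 20, DTT; 1% DMSO. FP read after 45 min at room temperature; IC50 by nonlinear regression of mP vs log concentration, binned A ≤100 nM to D >10 μM.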

For experiment [2], the target named is T2, Recombinant STAT6 protein (STAT6(W123-T658)) (Homo sapiens, UniProt P42226).
T2 construct: STAT6(W123-T658)
T2 sequence (P42226 123-658): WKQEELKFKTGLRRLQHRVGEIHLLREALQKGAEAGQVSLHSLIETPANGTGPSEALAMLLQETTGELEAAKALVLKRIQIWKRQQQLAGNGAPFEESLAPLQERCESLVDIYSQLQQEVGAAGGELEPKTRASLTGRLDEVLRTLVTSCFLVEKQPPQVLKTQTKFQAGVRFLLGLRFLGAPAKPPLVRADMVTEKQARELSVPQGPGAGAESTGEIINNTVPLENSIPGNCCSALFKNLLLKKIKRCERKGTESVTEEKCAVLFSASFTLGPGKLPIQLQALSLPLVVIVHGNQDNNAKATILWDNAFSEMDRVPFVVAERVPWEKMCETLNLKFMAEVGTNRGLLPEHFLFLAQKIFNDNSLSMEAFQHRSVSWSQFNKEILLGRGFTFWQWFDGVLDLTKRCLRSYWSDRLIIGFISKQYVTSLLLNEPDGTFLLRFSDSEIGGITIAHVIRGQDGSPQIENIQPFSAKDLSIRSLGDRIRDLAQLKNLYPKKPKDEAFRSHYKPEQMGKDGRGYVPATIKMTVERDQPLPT
Put plainly: STAT6 Fluorescence Polarization (FP) Assay. In kind it is binding. Conditions: STAT6(W123-T658) 250 nM, probe 5-FAM-ApYKPFQDLI-NH2 2 nM, 45-minute incubation. In a few lines: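 STAT6 (W123-T658) at 250 nM mixed with 2 nM 5-FAM-ApYKPFQDLI-NH2 probe in HEPES pH 7.4 buffer with DTT and Tween 20, 1% DMSO final. Polarization read after 45 min at room temperature; IC50 by nonlinear regression of mP versus log concentration, reported in bins A–D.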

T1 sequence (P40763 127-722, species assumed): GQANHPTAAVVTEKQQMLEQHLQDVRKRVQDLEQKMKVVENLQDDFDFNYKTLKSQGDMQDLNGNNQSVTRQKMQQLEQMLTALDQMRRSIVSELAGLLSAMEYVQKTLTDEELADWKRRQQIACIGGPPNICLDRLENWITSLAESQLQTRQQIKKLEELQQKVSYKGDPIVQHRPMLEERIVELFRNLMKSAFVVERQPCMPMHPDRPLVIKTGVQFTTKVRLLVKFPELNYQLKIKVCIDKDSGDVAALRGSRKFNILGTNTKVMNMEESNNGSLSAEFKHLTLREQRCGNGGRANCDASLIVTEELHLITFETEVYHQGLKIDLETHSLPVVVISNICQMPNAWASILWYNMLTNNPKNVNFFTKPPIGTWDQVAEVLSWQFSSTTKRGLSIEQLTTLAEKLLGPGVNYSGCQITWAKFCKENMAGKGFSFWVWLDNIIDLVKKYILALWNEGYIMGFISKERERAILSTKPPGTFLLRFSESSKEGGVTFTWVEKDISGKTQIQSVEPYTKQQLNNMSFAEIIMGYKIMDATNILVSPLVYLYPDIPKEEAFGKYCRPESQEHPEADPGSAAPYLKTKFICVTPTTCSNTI

In the case of `O=C(N[C@H]1C[C@H]2C[C@H]2C[C@H]2CC[C@@H](C(=O)N[C@H]3CN(c4cccnc4)C[C@@H]3F)N2C1=O)c1cc2cc(C(F)(F)P(=O)(O)O)ccc2s1` [Compound 128, (difluoro(2-(((3S,6S,7aR,8aS,9aR)-3-(((3S,4S)-4-fluoro-1-(pyridin-3-yl)pyrrolidin-3-yl)carbamoyl)-5-oxodecahydro-1H-cyclopropa[d]pyrrolo[1,2-a]azocin-6-yl)carbamoyl)benzo[b]thiophen-5-yl)methyl)phosphonic acid], the half-inhibitory concentration (IC50) in experiment [1] is under 100 nM; in experiment [2], 300 to 3000 nM.
As for `O=C(N[C@H]1C[C@H]2C[C@H]2C[C@H]2CC[C@@H](C(=O)N[C@H]3CN(c4cccnc4)C[C@H]3F)N2C1=O)c1cc2cc(C(F)(F)P(=O)(O)O)ccc2s1` [Compound 129, (difluoro(2-(((3S,6S,7aR,8aS,9aR)-3-(((3S,4R)-4-fluoro-1-(pyridin-3-yl)pyrrolidin-3-yl)carbamoyl)-5-oxodecahydro-1H-cyclopropa[d]pyrrolo[1,2-a]azocin-6-yl)carbamoyl)benzo[b]thiophen-5-yl)methyl)phosphonic acid], the half-maximal inhibitory concentration (IC50) in experiment [1] is under 100 nM; in experiment [2] it was 3000 to 30000 nM.
As to `C[C@@H]1CN(C(=O)C2CN(C(=O)[C@@H]3CC[C@@H]4C[C@H]5C[C@H]5C[C@H](NC(=O)c5cc6cc(C(F)(F)P(=O)(O)O)ccc6s5)C(=O)N43)C2)CCO1` [Example 1, (difluoro(2-(((3S,6S,7aS,8aR,9aR)-3-(3-((R)-2-methylmorpholine-4-carbonyl)azetidine-1-carbonyl)-5-oxodecahydro-1H-cyclopropa[d]pyrrolo[1,2-a]azocin-6-yl)carbamoyl)benzo[b]thiophen-5-yl)methyl)phosphonic acid], the IC50 was under 100 nM in experiment [1] and 3000 to 30000 nM in experiment [2].
Turning to `O=C(N[C@H]1C[C@@H]2C[C@@H]2C[C@H]2CC[C@@H](C(=O)Nc3ccc(-c4ccccc4)cc3)N2C1=O)c1cc2cc(C(F)(F)P(=O)(O)O)ccc2s1` [Example 3, ((2-(((3S,6S,7aS,8aR,9aR)-3-([1,1′-biphenyl]-4-ylcarbamoyl)-5-oxodecahydro-1H-cyclopropa[d]pyrrolo[1,2-a]azocin-6-yl)carbamoyl)benzo[b]thiophen-5-yl)difluoromethyl)phosphonic acid], the IC50 in experiment [1] lay in the range of 100 to 1000 nM; in experiment [2], 300 to 3000 nM.
As to `O=C(N[C@H]1C[C@@H]2C[C@@H]2C[C@H]2CC[C@@H](C(=O)N3CCN(C(=O)[C@@H]4CCOC4)CC3)N2C1=O)c1cc2cc(C(F)(F)P(=O)(O)O)ccc2s1` [Example 7, (difluoro(2-(((3S,6S,7aS,8aR,9aR)-5-oxo-3-(4-((R)-tetrahydrofuran-3-carbonyl)piperazine-1-carbonyl)decahydro-1H-cyclopropa[d]pyrrolo[1,2-a]azocin-6-yl)carbamoyl)benzo[b]thiophen-5-yl)methyl)phosphonic acid], the 50% inhibitory concentration (IC50) fell in the range of 100 to 1000 nM in experiment [1] and 300 to 3000 nM in experiment [2].
As to `O=C(N[C@H]1C[C@@H]2C[C@@H]2C[C@H]2CC[C@@H](C(=O)N3CCN(C(=O)[C@H]4CCOC4)CC3)N2C1=O)c1cc2cc(C(F)(F)P(=O)(O)O)ccc2s1` [Example 8, (Difluoro(2-(((3S,6S,7aS,8aR,9aR)-5-oxo-3-(4-((S)-tetrahydrofuran-3-carbonyl)piperazine-1-carbonyl)decahydro-1H-cyclopropa[d]pyrrolo[1,2-a]azocin-6-yl)carbamoyl)benzo[b]thiophen-5-yl)methyl)phosphonic acid], the IC50 lay within 100 to 1000 nM in experiment [1] and 3000 to 30000 nM in experiment [2].
For the compound `CC(=O)N1C[C@H](NC(=O)[C@@H]2CC[C@@H]3C[C@H]4C[C@H]4C[C@H](NC(=O)c4cc5cc(C(F)(F)P(=O)(O)O)ccc5s4)C(=O)N32)[C@@H](O)C1` [Example 9, ((2-(((3S,6S,7aS,8aR,9aR)-3-(((3S,4S)-1-acetyl-4-hydroxypyrrolidin-3-yl)carbamoyl)-5-oxodecahydro-1H-cyclopropa[d]pyrrolo[1,2-a]azocin-6-yl)carbamoyl)benzo[b]thiophen-5-yl)difluoromethyl)phosphonic acid], the IC50 fell in the range of 100 to 1000 nM in experiment [1] and 300 to 3000 nM in experiment [2].
The corresponding values for `C[C@@]12C[C@H]3CC[C@@H](C(=O)N4CC(c5cccnc5)C4)N3C(=O)[C@@H](NC(=O)c3cc4cc(C(F)(F)P(=O)(O)O)ccc4s3)C[C@@H]1C2` [Example 230, (difluoro(2-(((3S,6S,7aS,8aR,9aR)-8a-methyl-5-oxo-3-(3-(pyridin-3-yl)azetidine-1-carbonyl)decahydro-1H-cyclopropa[d]pyrrolo[1,2-a]azocin-6-yl)carbamoyl)benzo[b]thiophen-5-yl)methyl)phosphonic acid] are under 100 nM and 300 to 3000 nM.
The corresponding values for `C[C@]12CC[C@H](NC(=O)c3cc4cc(C(F)(F)P(=O)(O)O)ccc4s3)C(=O)N3[C@H](CC[C@H]3C(=O)N3CC(c4cccnc4)C3)[C@H]1C2` [Example 234, (difluoro(2-(((3S,6S,8aR,9aS,9bR)-8a-methyl-5-oxo-3-(3-(pyridin-3-yl)azetidine-1-carbonyl)decahydro-1H-cyclopropa[c]pyrrolo[1,2-a]azocin-6-yl)carbamoyl)benzo[b]thiophen-5-yl)methyl)phosphonic acid] are under 100 nM and 3000 to 30000 nM.
The corresponding values for `C[C@]12CC[C@H](NC(=O)c3cc4cc(CP(=O)(O)O)ccc4s3)C(=O)N3[C@H](CC[C@H]3C(=O)N3CC(c4cccnc4)C3)[C@H]1C2` [Example 235, ((2-(((3S,6S,8aR,9aS,9bR)-8a-methyl-5-oxo-3-(3-(pyridin-3-yl)azetidine-1-carbonyl)decahydro-1H-cyclopropa[c]pyrrolo[1,2-a]azocin-6-yl)carbamoyl)benzo[b]thiophen-5-yl)methyl)phosphonic acid] are 100 to 1000 nM and over 30000 nM.
As for `COC1(c2nccn2C)CN(C(=O)[C@@H]2CC[C@@H]3C[C@@]4(C)C[C@H]4C[C@H](NC(=O)c4cc5cc(C(F)(F)P(=O)(O)O)ccc5s4)C(=O)N32)C1` [Example 237, (difluoro(2-(((3S,6S,7aS,8aR,9aR)-3-(3-methoxy-3-(1-methyl-1H-imidazol-2-yl)azetidine-1-carbonyl)-8a-methyl-5-oxodecahydro-1H-cyclopropa[d]pyrrolo[1,2-a]azocin-6-yl)carbamoyl)benzo[b]thiophen-5-yl)methyl)phosphonic acid], the IC50 in experiment [1] fell in the range of 100 to 1000 nM; in experiment [2] it was 3000 to 30000 nM.
The corresponding values for `C[C@]12C[C@H]3CC[C@@H](C(=O)N4CC(c5cccnc5)C4)N3C(=O)[C@@H](NC(=O)c3cc4cc(CP(=O)(O)O)ccc4s3)C[C@H]1C2` [Example 238, ((2-(((3S,6S,7aR,8aS,9aR)-8a-methyl-5-oxo-3-(3-(pyridin-3-yl)azetidine-1-carbonyl)decahydro-1H-cyclopropa[d]pyrrolo[1,2-a]azocin-6-yl)carbamoyl)benzo[b]thiophen-5-yl)methyl)phosphonic acid] are 100 to 1000 nM and over 30000 nM.
The corresponding values for `Cc1ccncc1C1CN(C(=O)[C@@H]2CC[C@@H]3C[C@@H]4C[C@@H]4C[C@H](NC(=O)c4cc5cc(CP(=O)(O)O)ccc5s4)C(=O)N32)C1` [Example 243, ((2-(((3S,6S,7aR,8aS,9aR)-3-(3-(4-methylpyridin-3-yl)azetidine-1-carbonyl)-5-oxodecahydro-1H-cyclopropa[d]pyrrolo[1,2-a]azocin-6-yl)carbamoyl)benzo[b]thiophen-5-yl)methyl)phosphonic acid] are under 100 nM and over 30000 nM.
The corresponding values for `CC(=O)N1C[C@H](NC(=O)[C@@H]2CC[C@@H]3C[C@@H]4C[C@@H]4C[C@H](NC(=O)c4cc5cc(CP(=O)(O)O)ccc5s4)C(=O)N32)[C@@H](F)C1` [Example 244, ((2-(((3S,6S,7aR,8aS,9aR)-3-(((3S,4S)-1-acetyl-4-fluoropyrrolidin-3-yl)carbamoyl)-5-oxodecahydro-1H-cyclopropa[d]pyrrolo[1,2-a]azocin-6-yl)carbamoyl)benzo[b]thiophen-5-yl)methyl)phosphonic acid] are 1000 to 10000 nM and 3000 to 30000 nM.
With `O=C(N[C@H]1C[C@@H]2C[C@@H]2C[C@H]2CC[C@@H](C(=O)N[C@H]3CN(c4ccccn4)C[C@@H]3F)N2C1=O)c1cc2cc(CP(=O)(O)O)ccc2s1` [Example 246, ((2-(((3S,6S,7aS,8aR,9aR)-3-(((3S,4S)-4-fluoro-1-(pyridin-2-yl)pyrrolidin-3-yl)carbamoyl)-5-oxodecahydro-1H-cyclopropa[d]pyrrolo[1,2-a]azocin-6-yl)carbamoyl)benzo[b]thiophen-5-yl)methyl)phosphonic acid], the results for the IC50 in experiment [1] and in experiment [2] were 100 to 1000 nM and 3000 to 30000 nM, respectively.
